23 compounds from paper PMC11042244 (RSC Medicinal Chemistry, 2024) can be followed below.

For assay [1], the system named is murine bone marrow leukocytes. Put plainly: Cytotoxicity assay (CellTiter-Glo luminescent cell viability). The conditions noted are these: for Cyto-toxicity IC50: 90 min incubation, mean ± SD of three experiments, N.A. = no cytotoxicity at the highest concentration tested (25 μM); for IC50: Mus musculus, Leukocyte, read-out: Cyto-toxicity IC50. The format is cell-based, murine (CD-1 mice). The procedure:
(§1) All animal use was conducted in accordance with a protocol approved by the Institutional Animal Care and Use Committee (IACUC) at Montana State University (protocol approval number 2022-45-IA). Bone marrow leukocytes were flushed from tibias and femurs of BALB/c mice (2-month old; 25 g body weight) or CD-1 female mice (2.5-month old; 30 g body weight) with HBSS, filtered through a 70 μm nylon cell strainer (BD Biosciences, Franklin Lakes, NJ) to remove cell clumps and bone particles.
The cytotoxicity of compounds for murine bone marrow leukocytes was analyzed using a CellTiter-Glo Luminescent Cell Viability Assay kit (Promega), according to the manufacturer's protocol. Briefly, bone marrow leukocytes from CD-1 mice were incubated at a density of 10^4 cells per well with different concentrations of compounds (the final concentration of DMSO was 1%) for 90 min at 37 °C and 5% CO2. Following treatment, the substrate was added to the cells, and the samples were analyzed with a FlexStation 3 microplate reader (Molecular Devices, San Jose, CA), USA.

In assay [2] the test system is ROS produced by PMA-stimulated murine bone marrow leukocytes. Put plainly: Antiradical activity assay: L-012-enhanced chemiluminescence of ROS production. The format is cell-based, murine (BALB/c mice). As for the experimental part:
as §1
To evaluate antiradical activity, murine bone marrow leukocytes from BALB/c mice were resuspended at 10^6 cells per ml in HBSS containing Ca^2+ and Mg^2+ (HBSS^+) and supplemented with 40 μM L-012 (Wako Chemicals, Richmond, VA),[51] since L-012-enhanced chemiluminescence represents a sensitive and reliable method for detecting ROS.[52] The cells (100 μl) were then aliquoted into wells of 96-well flat-bottom white microtiter plates containing test compounds diluted in 100 μl of HBSS^+ (final DMSO concentration of 1%). The cells were activated by adding 200 nM PMA (Sigma Chemical Co., St. Louis, MO), and luminescence was monitored for 60 min (2 min intervals) at 37 °C using a Fluoroskan Ascent FL microtiter plate reader (Thermo Electron, Waltham, MA). The compound concentration that inhibited ROS production by 50% of the PMA-stimulated response was determined by graphing the percentage inhibition of the 60 min integrated luminescence versus the logarithm of concentration of test compound. Each curve was determined using five to seven compound concentrations. Curve fitting and calculation of median effective concentration values (IC50) were performed by nonlinear regression analysis of the dose–response curves generated using Prism 10 (GraphPad Software, Inc., San Diego, CA, USA).

Assay [3] deals with T1, HNE (human neutrophil elastase) (Homo sapiens, UniProt P08246).
T1 construct: purchased Calbiochem
T1 sequence (P08246 30-247 limits assumed): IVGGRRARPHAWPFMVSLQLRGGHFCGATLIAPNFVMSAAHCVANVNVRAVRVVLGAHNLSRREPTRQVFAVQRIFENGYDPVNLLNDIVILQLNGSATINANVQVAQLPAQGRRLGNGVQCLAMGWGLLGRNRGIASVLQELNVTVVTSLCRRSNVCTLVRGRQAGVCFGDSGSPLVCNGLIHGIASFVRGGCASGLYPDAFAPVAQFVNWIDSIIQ
Put plainly: HNE inhibition assay (fluorogenic substrate, enzymatic). The conditions noted are these: mean ± SD of three independent experiments, N.A. = no inhibitory activity at the highest concentration tested (50 μM). The format is biochemical. The procedure: All compounds were dissolved in 100% DMSO at 5 mM stock concentrations and then subsequently diluted in 100% DMSO at various concentrations appropriate for use in the dose–response assays. […] The HNE inhibition assay was performed in black flat-bottom 96-well microtiter plates. Briefly, a buffer solution containing 200 mM Tris-HCl, pH 7.5, 0.01% bovine serum albumin, and 0.05% Tween-20 and 20 mU mL^−1 of HNE (Calbiochem) was added to wells containing different concentrations of each compound. The reaction was initiated by addition of 25 μM elastase substrate (N-methylsuccinyl-Ala-Ala-Pro-Val-7-amino-4-methylcoumarin, Calbiochem) in a final reaction volume of 100 μL per well. Kinetic measurements were obtained every 30 s for 10 min at 25 °C using a Fluoroskan Ascent FL fluorescence microplate reader (Thermo Electron, MA) with excitation and emission wavelengths of 355 and 460 nm, respectively. For all compounds tested, the concentration of inhibitor that caused 50% inhibition of the enzymatic reaction (IC50) was calculated by plotting % inhibition versus logarithm of inhibitor concentration (at least six points).[50]

The mark [4] stands for this setting: inhibition of ROS production, 200 nM PMA, 60 min integrated luminescence, mean ± SD of three experiments, N.A. = no inhibitory activity at the highest concentration tested (50 μM).

Structures are written as SMILES. Bounds are passed on as bounds.

For the compound `CCOC(=O)c1ccc(-n2[se]c3ccccc3c2=O)cc1` [3b], the “Cyto-toxicity IC50” value in assay [1] was “no cytotoxicity”. In assay [2] (Mus musculus, Leukocyte, 1 h), the IC50 worked out at 1800 ± 200 nM.

Take `O=C(NC1CC1)c1ccc(-n2[se]c3ccccc3c2=O)cc1` [3c, N-Cyclopropyl-4-(3-oxobenzo[d][1,2]selenazol-2(3H)-yl)benzamide]: the IC50 was found to be 8 ± 1.9 µM in assay [1] and 9700 ± 1400 nM in assay [2] (Mus musculus, Leukocyte, 1 h).

As to `Cc1cccc(NC(=O)c2ccc(-n3[se]c4ccccc4c3=O)cc2)c1` [3d, 4-(3-Oxobenzo[d][1,2]selenazol-2(3H)-yl)-N-(m-tolyl)benzamide], the “Cyto-toxicity IC50” value in assay [1] is given as “no cytotoxicity”. Also, the “Antiradical activity IC50” value in assay [2] (setting [4]) is given as “inactivity”.

On to `CC(=O)n1[se]c2ccccc2c1=O` [4a, 2-Acetylbenzo[d][1,2]selenazol-3(2H)-one], for which the IC50 in assay [1] is 10.8 ± 2.4 µM; in assay [3], 7700 ± 2300 nM; in assay [2] (Mus musculus, Leukocyte, 1 h) it was 420 ± 60 nM.

For `CCC(=O)n1[se]c2ccccc2c1=O` [4b, 2-Propionylbenzo[d][1,2]selenazol-3(2H)-one], the IC50 in assay [1] came to 8.5 ± 1.8 µM; in assay [3] it was 2600 ± 200 nM; in assay [2] (Mus musculus, Leukocyte, 1 h), 180 ± 50 nM.

`CCCC(=O)n1[se]c2ccccc2c1=O` [4c, 2-Butyrylbenzo[d][1,2]selenazol-3(2H)-one]: the IC50 was determined as 4.9 ± 0.6 µM in assay [1]; 2400 ± 400 nM in assay [3]; 330 ± 80 nM in assay [2] (Mus musculus, Leukocyte, 1 h).

As to `CC(C)C(=O)n1[se]c2ccccc2c1=O` [4d, 2-Isobutyrylbenzo[d][1,2]selenazol-3(2H)-one], the half-inhibitory concentration (IC50) came to 9.6 ± 2.2 µM in assay [1]; 1200 ± 100 nM in assay [3]; 600 ± 200 nM in assay [2] (Mus musculus, Leukocyte, 1 h).

As for `CC(C)(C)C(=O)n1[se]c2ccccc2c1=O` [4e, 2-Pivaloylbenzo[d][1,2]selenazol-3(2H)-one], the IC50 in assay [1] turned out to be 13.6 ± 3.1 µM; in assay [3], 1800 ± 100 nM; in assay [2] (Mus musculus, Leukocyte, 1 h) it was 2600 ± 400 nM.

As to `CCCCC(=O)n1[se]c2ccccc2c1=O` [4f, 2-pentanoylbenzo[d][1,2]selenazol-3(2H)-one], the IC50 was 4.2 ± 0.9 µM in assay [1]; 900 ± 200 nM in assay [3]; less than 1000 nM in assay [2] (Mus musculus, Leukocyte, 1 h); 700 ± 200 nM in assay [2] (setting [4]).

As to `CCCCCC(=O)n1[se]c2ccccc2c1=O` [4g, 2-Hexanoylbenzo[d][1,2]selenazol-3(2H)-one], the “Cyto-toxicity IC50” value in assay [1] is on record as “no cytotoxicity”. This compound registered an IC50 in assay [3] of 3000 ± 400 nM. The “Antiradical activity IC50” value in assay [2] (setting [4]) is on record as “inactivity”.

Regarding `CCOC(=O)n1[se]c2ccccc2c1=O` [4h, Ethyl 3-oxobenzo[d][1,2]selenazole-2(3H)-carboxylate], the IC50 in assay [1] worked out at 15.2 ± 3.2 µM; in assay [2] (Mus musculus, Leukocyte, 1 h) it was 2500 ± 400 nM. Moreover, in assay [3], the “HNE inhibition IC50” value is “completely inactive”.

Turning to `CCOC(=O)CC(=O)n1[se]c2ccccc2c1=O` [4i, Ethyl 3-oxo-3-(3-oxobenzo[d][1,2]selenazol-2(3H)-yl)propanoate], the IC50 in assay [1] stood at 8.1 ± 1.7 µM; in assay [2] (Mus musculus, Leukocyte, 1 h), 1000 ± 300 nM.

`O=C(C1CC1)n1[se]c2ccccc2c1=O` [4j, 2-(Cyclopropanecarbonyl)benzo[d][1,2]selenazol-3(2H)-one]: the IC50 is 10.4 ± 2.4 µM in assay [1] and 1400 ± 100 nM in assay [3].

Turning to `O=C(C1CCCC1)n1[se]c2ccccc2c1=O` [4k, 2-(Cyclopentanecarbonyl)benzo[d][1,2]selenazol-3(2H)-one], the IC50 in assay [1] stood at 11.8 ± 2.8 µM; in assay [3], 2800 ± 200 nM; in assay [2] (Mus musculus, Leukocyte, 1 h), 1400 ± 200 nM.

Regarding `O=C(C1CCCCC1)n1[se]c2ccccc2c1=O` [4l, 2-(Cyclohexanecarbonyl)benzo[d][1,2]selenazol-3(2H)-one], the IC50 was 12.4 ± 3.4 µM in assay [1]; 24100 ± 4800 nM in assay [3]; 1100 ± 100 nM in assay [2] (Mus musculus, Leukocyte, 1 h).

`O=C(c1ccccc1)n1[se]c2ccccc2c1=O` [4m, 2-Benzoylbenzo[d][1,2]selenazol-3(2H)-one] yielded an IC50 in assay [3] of 2300 ± 400 nM.

`Cc1cccc(C(=O)n2[se]c3ccccc3c2=O)c1` [4n, 2-(3-Methylbenzoyl)benzo[d][1,2]selenazol-3(2H)-one]: the “Cyto-toxicity IC50” value in assay [1] is “no cytotoxicity”. Moreover, the IC50 in assay [3] was determined as 10900 ± 2100 nM; in assay [2] (Mus musculus, Leukocyte, 1 h), 7000 ± 1300 nM.

Consider `COc1ccc(C(=O)n2[se]c3ccccc3c2=O)cc1` [4o, 2-(4-Methoxybenzoyl)benzo[d][1,2]selenazol-3(2H)-one], for which the IC50 in assay [3] was found to be 8700 ± 1200 nM.

Turning to `O=C(c1ccsc1)n1[se]c2ccccc2c1=O` [4p, 2-(Thiophene-3-carbonyl)benzo[d][1,2]selenazol-3(2H)-one], the “Cyto-toxicity IC50” value in assay [1] is “no cytotoxicity”. Further, the IC50 in assay [2] (Mus musculus, Leukocyte, 1 h) was 14300 ± 2700 nM.

Consider `O=c1c2ccccc2[se]n1-c1ccccc1` [Ebselen (3a), 2-phenyl-1,2-benzoselenazol-3(2H)-one, reference compound], for which the IC50 in assay [1] was determined as 9.5 ± 2.5 µM. Further, the “HNE inhibition IC50” value in assay [3] was “completely inactive”.

For the compound `CC(C)(C)C(=O)Oc1ccc(S(=O)(=O)Nc2ccccc2C(=O)NCC(=O)O)cc1` [Sivelestat, reference compound], the “Cyto-toxicity IC50” value in assay [1] was “no cytotoxicity”.

For `CC(C)(C)C(=O)Oc1ccc(S(=O)(=O)n2[se]c3ccccc3c2=O)cc1` [compound 6, 4-[(3-Oxobenzo[d][1,2]selenazol-2(3H)-yl)sulfonyl]phenyl pivalate], the “Cyto-toxicity IC50” value in assay [1] is “no cytotoxicity”. The IC50 in assay [3] worked out at 2700 ± 500 nM; in assay [2] (Mus musculus, Leukocyte, 1 h), 6400 ± 400 nM.

For the compound `O=C(NC1CC1)n1[se]c2ccccc2c1=O` [compound 8, N-Cyclopropyl-3-oxobenzo[d][1,2]selenazole-2(3H)-carboxamide], the IC50 in assay [1] was 5.9 ± 1.6 µM; in assay [2] (Mus musculus, Leukocyte, 1 h), 900 ± 300 nM. Moreover, the “HNE inhibition IC50” value in assay [3] was “completely inactive”.
